# “Also recorded” adds a separate entry of the source.
# What was measured:
# Assay type in all cases: cell-based
# collagen 1A1 = test: Collagen 1A1 gene expression in human dermal fibroblasts; conditions: real time RT-PCR
# Description: Human dermal fibroblasts, HDF, prepared from neonatal foreskin and cultured for 4 days until they reached confluence as described in Example 3.
# Loricrin = test: Induction of differentiation marker loricrin in human epidermal keratinocytes (real time RT-PCR); conditions: NHEK, several concentrations
# Experimental: (§1) Silica mud precipitate was obtained from a natural source (Blue Lagoon geothermal basin, Svartsengi, Iceland). Sodium metasilicate was obtained from Prof. Dr. G. Lehmann, Biochemistry, Regensburg University. As control a ceramide mix (10 μM) was used to induce the differentiation markers.
# (§2) Long term cultured normal human epidermal keratinocytes, NHEK, prepared from neonatal foreskin are cultured in Keratinocyte SFM (Invitrogen™, Heidelberg, Germany) supplemented with bovine pituitary extract (Invitrogen, Heidelberg, Germany) and recombinant epidermal growth factor (Invitrogen, Heidelberg, Germany). Cells are propagated up to passage 2 or 3 at 37° C. and 5% CO2. For induction of differentiation NHEKs are seeded in 6-well plates and grown up to confluence and treated with several concentrations of the silica preparates.
# (§3) Total RNA was isolated using RNeasy Total RNA Kits (Qiagen, Hilden, Germany). The RNA concentration was determined via photometric measurement at 260/280 (Biophotometer, Eppendorf AG, Hamburg, Germany). An aliquot of 10 ng RNA was used for cDNA synthesis. […]
# (§4) PCR reactions were carried out on an opticon 1 (MJ Research, Waltham, Mass., USA) using SYBR Green® PCR Master Mix (Applied Biosystems, Darmstadt, Germany). Each sample was analyzed in double employing the universal protocol over 36 cycles. […]
# transglutaminase-1 = test: Induction of differentiation marker transglutaminase-1 in human epidermal keratinocytes (real time RT-PCR); conditions: NHEK, several concentrations
# Experimental: as §1, §2, §3, §4
# Involucrin = test: Induction of differentiation marker involucrin in human epidermal keratinocytes (real time RT-PCR); conditions: NHEK, several concentrations
# Experimental: as §1, §2, §3, §4
# Filaggrin = test: Induction of differentiation marker filaggrin in human epidermal keratinocytes (real time RT-PCR); conditions: NHEK, several concentrations
# Experimental: as §1, §2, §3, §4
structure (smiles),measurement,setting,value
O=[Si]([O-])[O-].[Na+].[Na+] [sodium metasilicate],collagen 1A1 gene expression,collagen 1A1,did not show any increase
same,expression of loricrin,Loricrin,induced
same,expression of transglutaminase-1,transglutaminase-1,substantial up-regulation; also recorded: induced
same,expression of involucrin,Involucrin,substantial up-regulation; also recorded: induced
same,expression of filaggrin,Filaggrin,substantial up-regulation; also recorded: induced; also recorded: stronger than with silica mud
